Molecular target: HCV RNA-dependent RNA polymerase (NS5B) (Hepatitis C virus genotype 1b (isolate BK) (HCV), UniProt P26663)
Assay: RNA-Dependent RNA HCV NS5B (polymerase) Assay and IC50 Determination
Format: biochemical
Conditions: purified HCV NS5B polymerase, polyA:U16 substrate, 32P-UTP incorporation; read-out: IC50
Outline: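 Purified NS5B was incubated with 0.5 uM polyA:U16, 10 μM UTP plus ^32P-UTP in 50 mM Hepes-KOH pH 7.5, 5 mM MgCl2, 5 mM DTT, 2% glycerol and 0.01% Triton X-100. Inhibitor reactions ran 60 min at 37° C, and radiolabelled RNA product was quantified after filter capture. IC50 values were obtained from concentration series.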

Chain of HCV RNA-dependent RNA polymerase (NS5B) (P26663 2420-3010): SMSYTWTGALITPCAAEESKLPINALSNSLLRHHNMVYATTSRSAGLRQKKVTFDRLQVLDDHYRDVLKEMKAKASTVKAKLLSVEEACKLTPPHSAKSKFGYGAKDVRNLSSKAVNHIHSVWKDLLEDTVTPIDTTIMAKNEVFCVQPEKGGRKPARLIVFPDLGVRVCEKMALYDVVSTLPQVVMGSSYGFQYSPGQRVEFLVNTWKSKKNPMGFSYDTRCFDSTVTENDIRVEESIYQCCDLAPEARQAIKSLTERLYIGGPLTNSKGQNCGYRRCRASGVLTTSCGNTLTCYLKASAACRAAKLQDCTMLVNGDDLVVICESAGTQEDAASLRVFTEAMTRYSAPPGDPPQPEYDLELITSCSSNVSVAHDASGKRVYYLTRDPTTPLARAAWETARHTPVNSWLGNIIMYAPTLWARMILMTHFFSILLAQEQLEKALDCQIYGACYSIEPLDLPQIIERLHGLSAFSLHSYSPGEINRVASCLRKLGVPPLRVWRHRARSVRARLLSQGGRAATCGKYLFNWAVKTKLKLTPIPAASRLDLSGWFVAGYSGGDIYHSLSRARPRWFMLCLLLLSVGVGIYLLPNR

SMILES | IC50 [nM]
CNC(=O)c1c(-c2ccc(F)cc2)oc2cc(N(CCOCCOCc3ccc(C(=O)OCC(N)=O)cc3)S(C)(=O)=O)c(C3CC3)cc12 [Compound 06-8B5, 4-[2-(2-{[5-Cyclopropyl-2-(4-fluoro-phenyl)-3-methylcarbamoyl-benzofuran-6-yl]-methanesulfonyl-amino}-ethoxy)-ethoxymethyl]-benzoic Acid Carbamoylmethyl Ester] | 100 to 1000
CNC(=O)c1c(-c2ccc(F)cc2)oc2cc(N(CCOCCOCCOCCOCCOCc3ccc(C(C)=O)cc3)S(C)(=O)=O)c(C3CC3)cc12 [Compound 02-8I, 6-({2-[2-(2-{2-[2-(4-Acetyl-benzyloxy)-ethoxy]-ethoxy}-ethoxy)-ethoxy]-ethyl}-methanesulfonyl-amino)-5-cyclopropyl-2-(4-fluoro-phenyl)-benzofuran-3-carboxylic Acid Methylamide] | > 1000
CNC(=O)c1c(-c2ccc(F)cc2)oc2cc(N(CCOCCOCCOC3(C(=O)O)CCCC3)S(C)(=O)=O)c(C3CC3)cc12 [Compound 26-7A, 1-{2-[2-(2-{[5-Cyclopropyl-2-(4-fluoro-phenyl)-3-methylcarbamoyl-benzofuran-6-yl]-methanesulfonyl-amino}-ethoxy)-ethoxy]-ethoxy}-cyclopentanecarboxylic Acid] | < 100
CNC(=O)c1c(-c2ccc(F)cc2)oc2cc(N(CCOCCOCCOCc3ccccc3C(=O)O)S(C)(=O)=O)c(C3CC3)cc12 [Compound 06-7D, 2-{2-[2-(2-{[5-Cyclopropyl-2-(4-fluoro-phenyl)-3-methylcarbamoyl-benzofuran-6-yl]-methanesulfonyl-amino}-ethoxy)-ethoxy]-ethoxymethyl}-benzoic Acid] | 100 to 1000
CCCCCOC(=O)c1ccc(COCCOCCN(c2cc3oc(-c4ccc(F)cc4)c(C(=O)NC)c3cc2C2CC2)S(C)(=O)=O)cc1 [Compound 06-8B4, 4-[2-(2-{[5-Cyclopropyl-2-(4-fluoro-phenyl)-3-methylcarbamoyl-benzofuran-6-yl]-methanesulfonyl-amino}-ethoxy)-ethoxymethyl]-benzoic Acid Pentyl Ester] | 100 to 1000
CNC(=O)c1c(-c2ccc(F)cc2)oc2cc(N(CCOCCSC(C)=O)S(C)(=O)=O)c(C3CC3)cc12 [Compound 21-5, Thioacetic Acid S-[2-(2-{[5-cyclopropyl-2-(4-fluoro-phenyl)-3-methylcarbamoyl-benzofuran-6-yl]-methanesulfonyl-amino}-ethoxy)-ethyl] Ester] | < 100
CNC(=O)c1c(-c2ccc(F)cc2)oc2cc(N(CC(=O)NCC(=O)NCCCC(C)C(=O)OC)S(C)(=O)=O)c(C3CC3)cc12 (stereo not shown) [Compound 10-3B, 5-[2-(2-{[5-Cyclopropyl-2-(4-fluoro-phenyl)-3-methylcarbamoyl-benzofuran-6-yl]-methanesulfonyl-amino}-acetylamino)-acetylamino]-2-methyl-pentanoic Acid Methyl Ester] | > 1000
CNC(=O)c1c(-c2ccc(F)cc2)oc2cc(N(CCOCCCCc3ccc(C(=O)O)cc3)S(C)(=O)=O)c(C3CC3)cc12 [Compound 13-8A, 4-[4-(2-{[5-Cyclopropyl-2-(4-fluoro-phenyl)-3-methylcarbamoyl-benzofuran-6-yl]-methanesulfonyl-amino}-ethoxy)-butyl]-benzoic Acid] | 100 to 1000
CNC(=O)c1c(-c2ccc(F)cc2)oc2cc(N(CCOCCOCCOCCCCCc3cccc(C(=O)CC(=O)C(=O)O)c3)S(C)(=O)=O)c(C3CC3)cc12 [Compound 30-15, 4-[3-(5-{2-[2-(2-{[5-Cyclopropyl-2-(4-fluoro-phenyl)-3-methylcarbamoyl-benzofuran-6-yl]-methanesulfonyl-amino}-ethoxy)-ethoxy]-ethoxy}-pentyl)-phenyl]-2,4-dioxo-butyric acid] | > 1000
CNC(=O)c1c(-c2ccc(F)cc2)oc2cc(N(CCOCCOCc3ccc(C(=O)O)c4ccccc34)S(C)(=O)=O)c(C3CC3)cc12 [Compound 20-8, 4-[2-(2-{[5-Cyclopropyl-2-(4-fluoro-phenyl)-3-methylcarbamoyl-benzofuran-6-yl]-methanesulfonyl-amino}-ethoxy)-ethoxymethyl]-naphthalene-1-carboxylic Acid] | < 100
CNC(=O)c1c(-c2ccc(F)cc2)oc2cc(N(CCOCCOCc3ccc(C(=O)OC)c([N+](=O)[O-])c3)S(C)(=O)=O)c(C3CC3)cc12 [Compound 29-7, 4-[2-(2-{[5-Cyclopropyl-2-(4-fluoro-phenyl)-3-methylcarbamoyl-benzofuran-6-yl]-methanesulfonyl-amino}-ethoxy)-ethoxymethyl]-2-nitro-benzoic Acid Methyl Ester] | 100 to 1000
CNC(=O)c1c(-c2ccc(F)cc2)oc2cc(N(CCOCCOCCOc3ccc(C(=O)O)cc3)S(C)(=O)=O)c(C3CC3)cc12 [Compound 14-7C, 4-{2-[2-(2-{[5-Cyclopropyl-2-(4-fluoro-phenyl)-3-methylcarbamoyl-benzofuran-6-yl]-methanesulfonyl-amino}-ethoxy)-ethoxy]-ethoxy}-benzoic Acid] | 100 to 1000
CNC(=O)c1c(-c2ccc(F)cc2)oc2cc(N(CCOCCOCCOCC(N)=O)S(C)(=O)=O)c(C3CC3)cc12 [Compound 23-7A, 6-({2-[2-(2-Carbamoylmethoxy-ethoxy)-ethoxy]-ethyl}-methanesulfonyl-amino)-5-cyclopropyl-2-(4-fluoro-phenyl)-benzofuran-3-carboxylic Acid Methylamide] | 100 to 1000
CNC(=O)c1c(-c2ccc(F)cc2)oc2cc(N(CCOCCOCCOC3(C(=O)OC(C)(C)C)CCCC3)S(C)(=O)=O)c(C3CC3)cc12 [Compound 26-6A] | > 1000
CNC(=O)c1c(-c2ccc(F)cc2)oc2cc(N(CCCOCCOCc3cccc(C(=O)/C=C(\O)C(=O)O)c3)S(C)(=O)=O)c(C3CC3)cc12 [Compound 03-8A, 4-{3-[2-(3-{[5-Cyclopropyl-2-(4-fluoro-phenyl)-3-methylcarbamoyl-benzofuran-6-yl]-methanesulfonyl-amino}-propoxy)-ethoxymethyl]-phenyl}-2-hydroxy-4-oxo-but-2-enoic Acid] | 100 to 1000
CCOC(=O)C(C)OCCOCCOCCN(c1cc2oc(-c3ccc(F)cc3)c(C(=O)NC)c2cc1C1CC1)S(C)(=O)=O (stereo not shown) [Compound 30-2, 2-{2-[2-(2-{[5-Cyclopropyl-2-(4-fluoro-phenyl)-3-methylcarbamoyl-benzofuran-6-yl]-methanesulfonyl-amino}-ethoxy)-ethoxy]-ethoxy}-propionic acid ethyl ester] | > 1000
CNC(=O)c1c(-c2ccc(F)cc2)oc2cc(N(CC(=O)NCC(=O)NCc3cccc(C(C)=O)c3)S(C)(=O)=O)c(C3CC3)cc12 [Compound 30-6, 6-[({[(3-Acetyl-benzylcarbamoyl)-methyl]-carbamoyl}-methyl)-methanesulfonyl-amino]-5-cyclopropyl-2-(4-fluoro-phenyl)-benzofuran-3-carboxylic acid methylamide] | > 1000
CNC(=O)c1c(-c2ccc(F)cc2)oc2cc(N(CCOCCOCCOCCC(=O)O)S(C)(=O)=O)c(C3CC3)cc12 [Compound 24-4, 3-{2-[2-(2-{[5-Cyclopropyl-2-(4-fluoro-phenyl)-3-methylcarbamoyl-benzofuran-6-yl]-methanesulfonyl-amino}-ethoxy)-ethoxy]-ethoxy}-propionic Acid] | 100 to 1000
CNC(=O)c1c(-c2ccc(F)cc2)oc2cc(N(CCOCCOCCCc3ccccc3C(=O)OC)S(C)(=O)=O)c(C3CC3)cc12 [Compound 12-6A, 2-{3-[2-(2-{[5-Cyclopropyl-2-(4-fluoro-phenyl)-3-methylcarbamoyl-benzofuran-6-yl]-methanesulfonyl-amino}-ethoxy)-ethoxy]-propyl}-benzoic Acid Methyl Ester] | 100 to 1000
CCOC(=O)COC(=O)c1ccc(COCCOCCN(c2cc3oc(-c4ccc(F)cc4)c(C(=O)NC)c3cc2C2CC2)S(C)(=O)=O)cc1 [Compound 06-8B8, 4-[2-(2-{[5-Cyclopropyl-2-(4-fluoro-phenyl)-3-methylcarbamoyl-benzofuran-6-yl]-methanesulfonyl-amino}-ethoxy)-ethoxymethyl]-benzoic Acid Ethoxycarbonylmethyl Ester] | 100 to 1000
CNC(=O)c1c(-c2ccc(F)cc2)oc2cc(N(CCOCCOCCc3ccc(C(=O)O)cc3)S(C)(=O)=O)c(C3CC3)cc12 [Compound 11-6C, 4-{2-[2-(2-{[5-Cyclopropyl-2-(4-fluoro-phenyl)-3-methylcarbamoyl-benzofuran-6-yl]-methanesulfonyl-amino}-ethoxy)-ethoxy]-ethyl}-benzoic Acid] | 100 to 1000
CNC(=O)c1c(-c2ccc(F)cc2)oc2cc(N(CCNC(=O)CNC(=O)CCCC(=O)O)S(C)(=O)=O)c(C3CC3)cc12 [Compound 07-7, 4-{[(2-{[5-Cyclopropyl-2-(4-fluoro-phenyl)-3-methylcarbamoyl-benzofuran-6-yl]-methanesulfonyl-amino}-ethylcarbamoyl)-methyl]-carbamoyl}-butyric Acid] | > 1000
CNC(=O)c1c(-c2ccc(F)cc2)oc2cc(N(CCCCCCOc3ccc(C(=O)O)cc3)S(C)(=O)=O)c(C3CC3)cc12 [Compound 15-8, 4-(6-{[5-Cyclopropyl-2-(4-fluoro-phenyl)-3-methylcarbamoyl-benzofuran-6-yl]-methanesulfonyl-amino}-hexyloxy)-benzoic Acid] | 100 to 1000
CNC(=O)c1c(-c2ccc(F)cc2)oc2cc(N(CCCCCOCCCC(C)C(=O)O)S(C)(=O)=O)c(C3CC3)cc12 (stereo not shown) [Compound 28-8B, 5-(5-{[5-Cyclopropyl-2-(4-fluoro-phenyl)-3-methylcarbamoyl-benzofuran-6-yl]-methanesulfonyl-amino}-pentyloxy)-2-methyl-pentanoic Acid] | < 100
CNC(=O)c1c(-c2ccc(F)cc2)oc2cc(N(CCOCCOCCOCCOC)S(C)(=O)=O)c(C3CC3)cc12 [Compound 05-4A, 6-(N-(2,5,8,11-Tetraoxatridecan-13-yl)-methylsulfonamido)-5-cyclopropyl-2-(4-fluorophenyl)-N-methylbenzofuran-3-carboxamide] | > 1000
